Consider six substances from patent US20030104635A1, “Screening methods” (AVIDEX LIMITED, priority 1999, published 2003).

Experiment [1] has as its system class I MHC-restricted T cells. The following applies: cited from earlier work.
The subject of experiment [2] is MHC/peptide complex. The following applies: cited from earlier work.
Experiment [3] has as its target influenza matrix peptide-HLA-A2 complex (biotinylated) (influenza virus). The experiment is described as follows: SPR (BIAcore 3000), sTCR-specific response over repeated injections after compound mixtures. (In SPR one partner is held on a chip, and binding of the other changes the refractive index at the surface.)
Experiment [4] addresses HLA-A2 (prepared as described in Example A1 and tagged with a biotin molecule). As to the kind of experiment: SPR (BIAcore 3000), sCD8αα-specific response as a percentage of the initial response.
Experiment [5] addresses B7. The following applies: read-out: Kd of CD28-B7 interaction; cited from earlier work.
Experiment [6] addresses tax 11-19 peptide-HLA-A2 complex (biotinylated). The experiment is described as follows: SPR (BIAcore 3000), sTCR-specific response over repeated injections after compound mixtures.

For the substance “soluble, recombinant CD8: soluble, recombinant CD8 derived from the human coreceptor”, the “inhibition of class I MHC-restricted T cells responses” value in experiment [1] is on record as “potent inhibitor”.
Consider “CD8: T cell coreceptor binding class I MHC/peptide complex”, for which the “off rate from an MHC/peptide complex” value in experiment [2] is reported as “approximately 10 s^−1”. In addition, the Kd in experiment [2] (read-out: Kd of interaction with MHC/peptide complex) was roughly 500 µM.
In the case of JM22 soluble T cell receptor (TCR), in experiment [3], the loss of signal after 10 mixtures was found to be 10.2% and the loss of signal over the run came to 9.3%.
Turning to “recombinant soluble form of CD8 (sCD8αα) (from UniProt P01732 22-141) (receptor)”, in experiment [4], the loss of signal over the run was 3.6%.
In the case of “CD28: receptor with low affinity interaction with B7”, the Kd in experiment [5] was roughly 4 µM.
Consider A6 soluble T cell receptor (TCR), for which the loss of signal over the run in experiment [6] is 33%.
